Consider 106 compounds from a melting point compilation (Tetko et al.).

A word on the melting point: it is the temperature, or range, at which the solid turns liquid. `CCc1cccc(CC)c1NC(=O)CN(CC(=O)O)CC(=O)O` returned a melting point of 187 to 190 °C. Take `COc1ccc(CCO)cc1`: the melting point fell in the range of 28 to 30 °C. Next, `CCCOc1ccc([N+](=O)[O-])cc1N`: 49 °C; `COc1ccc(/C=C(\Oc2ccccc2)c2nc3ccccc3s2)cc1`: 151 °C. The compound `O=S1(=O)OC(c2ccc(O)cc2)(c2ccc(O)cc2)c2ccccc21` gave a melting point of 300 °C. Turning to `COC(=O)c1sc(C(F)(F)F)c(-c2ccccc2)c1N`, the melting point is 119 to 120 °C. The compound `CCCCCCCCCCNCCCCCCCCCC` gave a melting point of 40 °C. As to `CNC(=O)Oc1cc(C)cc(C)c1`, the melting point came out at 99 °C. Under `O=C(c1ccccc1)N(O)c1ccccc1` stands 119 to 123 °C; under `CN1C(=O)NC(=O)C1(C)C`, 163 °C; under `COc1ccc(/C=C2\CCCC3=C2NC(=S)NC3c2ccc(OC)cc2)cc1` (stereo unspecified), 184 °C. `CCNC(=O)C=C(C)C=CC=C(C)C=Cc1c(C)cc(OC)c(C)c1C` registered a melting point of 180 °C. Under `O=[N+]([O-])c1ccc(NN=Cc2cccc3c(Br)ccc([N+](=O)[O-])c23)c([N+](=O)[O-])c1` stands 243 to 244 °C; under `NC(=NO)c1ccc(OC(F)(F)F)cc1`, 113 to 115 °C. The compound `O=C1NC(=O)C2(c3ccc(Cl)cc3)c3ccccc3CCN12` (stereo unspecified) registered a melting point of 215 to 216 °C. Under `Cc1ccc(-c2cccc(C)c2)cc1` stands 14.5 °C; under `OC(c1ccccc1)c1ccc(Br)cc1` (stereo unspecified), 61 to 63 °C. Compound `O=C=Nc1ccc2sccc2c1` registered a melting point of 58 °C.

`Cn1c(/C(C#N)=N/Nc2ccc([N+](=O)[O-])cc2)nc2ccccc21`: the melting point came to 238 °C. Under `FC(F)C(F)C(F)(F)F` (stereo unspecified) stands -156 °C. Consider `CN(NC=O)c1ccccc1`, for which the melting point was 47 °C.

Compound `Oc1c(Br)cc(F)cc1Br` gave a melting point of 55 °C. In turn, `O=C1CCCCCCCCC1O` (stereo unspecified) returned a melting point of 42 °C. Next, `Oc1cc(F)cc(F)c1`: 53 °C; `CC1=C(CCC(=O)O)c2cc3nc(cc4[nH]c(cc5[nH]c(cc1n2)c(C)c5C(C)O)c(C)c4C(C)O)C(C)=C3CCC(=O)O` (stereo unspecified): 172 °C.

`CSC(SC)=C(C#N)C(=O)c1ccc(Cl)cc1` returned a melting point of 82 to 84 °C. With `COc1ccc(C(=O)C2=NOC3C(=O)N(c4ccc(C(=O)O)cc4)C(=O)C23)cc1` (stereo unspecified), the melting point came out at 199 °C.

`COC(=O)c1ccc(N2N=N2)cc1` returned a melting point of 40 °C. Compound `CC(=CC=Cc1ccccc1)C(=O)OC(=O)C(C)=CC=Cc1ccccc1` came in with a melting point of 112 to 113 °C.

Regarding `COc1ccc(Nc2nc(N)nnc2-c2ccccc2)cc1`, the melting point amounted to 293 °C. Next, `OCCCC1CCCCC1`: -60 °C; `CCc1ccc(Cc2ccccc2)cc1`: -24 °C. Compound `O=C(O)Cc1cc(F)ccc1F` yielded a melting point of 125 °C.

Consider `O=C(/C(=N/Nc1cccnc1)C(=O)C(F)(F)F)c1cccs1`, for which the melting point came to 150 °C.

Compound `NP(=O)(Oc1ccccc1)Oc1ccccc1` returned a melting point of 149 °C. Next, `CN1CC(C(=O)O)CC1=O` (stereo unspecified): 152 °C; `Fc1ccccc1C1=NCC(=S)N(CC(F)(F)F)c2ccc(Cl)cc21`: 138 °C; `CCC(=O)c1ccc(C(F)(F)F)cc1`: 36 to 37 °C. The compound `Cc1cc(Br)c(N)cc1OCc1ccccc1` displayed a melting point of 137 to 138 °C. For `CCCCCCCCCCCCC(Br)C(=O)O` (stereo unspecified), the melting point turned out to be 42 °C. Consider `COC(=O)CCc1ccc(O)cc1`, for which the melting point was in the range of 37 to 41 °C. For the compound `CS(=O)(=O)CN1C(=O)NC(c2ccccc2)(c2ccccc2)C1=O`, the melting point is 196 to 197 °C.

`COc1cc(C(=O)c2ccc(Cl)cc2)c([N+](=O)[O-])cc1OC` gave a melting point of 142 °C. With `c1ccc2c(c1)Cc1c-2ccc2ccccc12`, the melting point turned out to be 190 °C.

In turn, `N#C/C(=N\Nc1c(Br)cc(Br)cc1Br)c1nc2ccccc2s1` registered a melting point of 179 °C. `CCOC(=O)CC1NCCNC1=O` (stereo unspecified) registered a melting point of 102 to 105 °C.

`CC(C)[C@H](O)C(=O)O` yielded a melting point of 65 to 68 °C. Consider `CC(=O)SCC(C)C(=O)O` (stereo unspecified), for which the melting point was 5 °C. On to `CCCCSc1sc(C(=O)OCC)c2c1C(=O)CCC2`, for which the melting point lay in the range of 70 to 73 °C. `CC1(C)C=C(C(=O)O)C(C)(C)N1O` came in with a melting point of 202 °C. Under `NS(=O)(=O)c1ccc(F)c(C(F)(F)F)c1` stands 162 °C; under `CNC(C)C1C(O)CC2(C)C3CCC4C(C)(C)C(NC)CCC45CC35CCC12C` (stereo unspecified), 207 °C; under `CC1=C(CC(=O)O)c2cc(F)ccc2C1=Cc1ccc(S(C)=O)cc1` (stereo unspecified), 184 °C. As for `O=C1Nc2ccc([N+](=O)[O-])cc2C1=O`, the melting point turned out to be 251 °C. Next, `O=C(CCCN1CCC2(CC1)C(=O)NCN2c1ccccc1)c1ccc(F)cc1`: 190 °C. `S=c1[nH]ccn1-c1cccc(Cl)c1` yielded a melting point of 161 to 163 °C. With `O=C(Nc1cccc([N+](=O)[O-])c1)c1ccccc1`, the melting point worked out at 155 °C. As for `CCCCCCCCCCCC(=O)N1CC(=O)NC(=O)C1`, the melting point lay in the range of 114 to 116 °C.

The compound `Clc1nccc2ccc(Br)cc12` returned a melting point of 124 °C. Compound `c1ccc(-c2nnc3n2NC(c2ccccc2)S3)cc1` (stereo unspecified) gave a melting point of 83 °C. `CC1(C)CC(N)CC(C)(CN)C1` (stereo unspecified) had a melting point of 10 °C. Under `COc1ccc(S(=O)(=O)c2coc(S(N)(=O)=O)c2)cc1` stands 118 °C. Compound `CCC1CN2CCC1CC2C(O)c1ccnc2ccccc12` (stereo unspecified) had a melting point of 268 °C.

Take `CCOc1ccc(Br)cc1`: the melting point came out at 4 °C. Regarding `Nc1nc2ccccc2n1Cc1ccc(Cl)cc1`, the melting point fell in the range of 197 to 199 °C. Consider `O=[N+]([O-])c1ccc(NN=C(Cc2ccccc2)C(O)Cc2ccccc2)cc1` (stereo unspecified), for which the melting point was 122 °C. For `CC=CC(C)C(C)C=CC` (stereo unspecified), the melting point is -64.8 °C. With `Cc1noc(-c2ccccc2)c1N=C=O`, the melting point lay within 79 to 81 °C.

On to `CC(C)(c1cc(Br)c(O)c(Br)c1)c1cc(Br)c(O)c(Br)c1`, for which the melting point is 181 °C. In the case of `COC(=O)c1c(C(=O)OC)c(-c2ccccc2)c2c(Cl)nc(Cl)cc2c1Sc1ccccc1`, the melting point was determined as 178 °C. For the compound `CCN(CC)c1cccc(O)c1`, the melting point came out at 78 °C. In turn, `CCCCCCCCCCCCOc1ccc(C(=O)O)cc1` showed a melting point of 134 °C. Compound `O=C1CN2CCOC2(c2ccccc2F)c2cc(Br)ccc2N1` (stereo unspecified) had a melting point of 185 °C. Take `OCCCCCCCCCCCCBr`: the melting point is 34 °C. As to `Cc1ccc(-n2c(C)cc(C(=O)CCl)c2C)cc1`, the melting point is 81 to 83 °C. For `CCOC(=O)C(Nc1cccc(NC(C(=O)OCC)C(=O)OCC)c1)C(=O)OCC`, the melting point is 79 °C. For `C[Si]1(C)O[Si](C)(C)O[Si](C)(C)O[Si](C)(C)O[Si](C)(C)O[Si](C)(C)O[Si](C)(C)O1`, the melting point is -26 °C.

Compound `O=S(=O)(c1ccccc1)c1ccsc1` yielded a melting point of 116 °C.

`Cc1ccc(C=O)c(O)c1` gave a melting point of 60.5 °C. Under `N#Cc1cc(O)cc(O)c1` stands 188 °C; under `O=c1[nH]c2scc(-c3ccccc3)c2c(=O)n1-c1ccc(Cl)c(Cl)c1`, 274 to 276 °C. The compound `CC1(C)c2ccccc2N(Cc2ccccc2)C12C=Cc1cc([N+](=O)[O-])ccc1O2` (stereo unspecified) displayed a melting point of 158 to 160 °C. Regarding `CC1=NN(c2ccccc2)C(=O)C1C(c1ccc(O)cc1)C1C(=O)N(c2ccccc2)N=C1C` (stereo unspecified), the melting point came to 241 °C. On to `CCCCOC(=O)c1ccccc1O`, for which the melting point is -5.9 °C. Take `Oc1cc(C(F)(F)F)nc2ccc(OC(F)(F)F)cc12`: the melting point lay in the range of 229 to 232 °C.

`O=C(O)c1cccc(-c2ccccn2)c1` yielded a melting point of 207 to 209 °C.

As to `Oc1cc(-c2ccccc2)c2cc(Br)cc(Br)c2n1`, the melting point was 210 to 211 °C. Turning to `O=C1Cc2cc([N+](=O)[O-])ccc21`, the melting point turned out to be 76 °C. The compound `CNCc1sc(-c2ccccc2)nc1-c1ccccc1` returned a melting point of 87 to 88 °C. Under `Cc1nc2ccccn2c1Br` stands 73 to 74 °C; under `COc1ccc2c(OC)cccc2c1`, 58.5 °C.

Regarding `COc1ccc(Cc2c(N)nn3c(C)cc(C)nc23)cc1`, the melting point lay within 159 to 160 °C. As for `Nc1nc(F)nc2c1ncn2C1OC(CO)C(O)C1O` (stereo unspecified), the melting point came to 260 °C. The compound `O=Cc1cccc(N2CCOCC2)n1` had a melting point of 93 to 95 °C. Turning to `Ic1cc(I)c(I)cc1I`, the melting point was 254 °C. Next, `COC1=C(OC)C(C(CBr)OC(C)=O)OC1=O` (stereo unspecified): 74 °C. In turn, `CCOC(=O)c1c(NC(=S)Nc2ccc(Cl)cc2)sc2c1CCN(Cc1ccccc1)C2` returned a melting point of 169 to 172 °C.

Consider `CCCCCCc1ccc(C#Cc2ccc(CC)cc2)cc1`, for which the melting point was 10 °C. In the case of `CC(=O)CC[C@H]1[C@@H](C#N)[C@H](C(C)C)CC[C@@]1(C)OC(C)=O`, the melting point lay within 106 to 109 °C.

Consider `OCC[C@@H](O)c1ccccc1`, for which the melting point was in the range of 62 to 66 °C. In turn, `Fc1ccc(Oc2ccnc3cc(Cl)cc(Cl)c23)cc1` displayed a melting point of 107 °C.

Compound `CCCCCCCc1ccc(-c2ccccc2)cc1` registered a melting point of 27 °C. As for `NCCc1ccc(O)cc1`, the melting point came to 164 °C. Take `C=CC1(C)C=C2CCC3C(C)(C(=O)O)CCCC3(C)C2CC1` (stereo unspecified): the melting point was 218 °C.

`CC1CCC(=O)C1=O` (stereo unspecified): the melting point lay in the range of 105 to 110 °C. As for `O=C1c2ccccc2C(=O)N1CCOCCCl`, the melting point was 72 to 73 °C.
